Reference: US20220259215A1, “PYRROLOPYRAZOLE DERIVATIVES, PREPARATION METHOD THEREOF AND APPLICATION THEREOF IN MEDICINE” (SHANGHAI MEDICILON INC., priority 2019, published 2022)

Molecular target: T1, H+/K+ATPase (Oryctolagus cuniculus, UniProt P27112)
T1 construct: The stomach tissue of the rabbit was separated; from tissue; host or cells: rabbit stomach (fundus mucosa), membrane fraction obtained by differential and Ficoll centrifugation
Assay: Determination of compounds' inhibition of H+/K+ATPase enzyme activity (malachite green, OD 620 nm)
Format: biochemical
Conditions: H+/K+ATPase extracted from rabbit stomach mucosa; 500 μM ATP, pH 6.5, 37° C.
Text: Test Example: Determination of Compounds' Inhibition of H+/K+ATPase Enzyme Activity
The following experiment is used to determine the inhibitory effect of the compound of the present invention on the H+/K+ATPase enzyme activity.
1. Experimental materials
Plate reader: SpectraMax M5(MD).
Malachite Green (Sigma Aldrich, 213020-25G).
Ammonium molybdate (Sigma Aldrich, 277908-20G).
ATP (Sigma Aldrich, A1852-1VL).
Enzyme working solution: titrating the enzyme, diluting the enzyme with buffer solution 1, and taking 5 μl of the diluted solution into 50 μl reaction system.
ATP solution: 100 mM ATP was diluted to 5 mM with no K+ buffer, and 5 μl of the diluted solution was added to the 50 μl reaction system, that is, the final concentration of ATP was 500 μM.
MLG color development liquid: 0.12% MLG, 7.5% ammonium molybdate, 11% Tween-20 was mixed as 100:25:2, and adding 15 μl of the mixture into each well during detection.
Buffer 1: 50 mM Tris-HCl pH 6.5, 5 mM magnesium chloride (magnesium chloride), 10 μM valinomycin (valinomycin).
Buffer 2: 50 mM Tris-HCl pH 6.5, 5 mM magnesium chloride (magnesium chloride), 10 μM valinomycin (valinomycin), 20 mM KCl.
Homogenization buffer: 10 mmol/L Tris-HCl, pH 6.8, 0.25M sucrose (sucrose), 1 mmol/LEDTA.
7.5% Ficoll layering solution: homogenization buffer+7.5% (W/W) (Ficoll 400).
3.1.H^+/K^+ATPase enzyme extraction
(1) The stomach tissue of the rabbit was separated, and the blood was washed with tap water, food residue.
(2) The fundus portion was thoroughly washed with pre-cooled NaCl solution to remove surface mucus.
(3) The stripped mucosa was filled into a sample bag or a 50 ml centrifuge tube, and quickly freezing in a liquid nitrogen tank.
(4) The tissue was removed, minced with surgical scissors, and a pre-cooled homogenization buffer (4 ml/g tissue) was added and homogenized in a tissue homogenizer for 2 to 10 minutes.
(5) After homogenization, if there were larger tissue particles, they could be removed by centrifugation (600 g, 10 min), and then the supernatant was transfered to a clean centrifuge tube. After centrifugation at 20000 g for 30 minutes, then the supernatant was transferred to a clean centrifuge tube at 100000 g for 90 minutes, and the precipitate was collected.
(6) Resuspending the precipitate with homogenization buffer, blowing uniformly, adding 7.5% Ficoll layering solution at equal ratio, centrifuging at 100000 g for 90 minutes, and collecting the precipitate.
(7) Resuspending the precipitate with homogenization buffer, blowing uniformly, and the protein concentration was measured by Bradford. Freezing in tubes at −80° C. for later use.
3.2. H+/K+ATPase activity experiment
(1) Adding 35 μl of reaction buffer to each experimental well, and then adding 35 μl of buffer 1.
(2) Adding 5 μl buffer 1 containing 10% DMSO to the whole enzyme and buffer well.
(3) Adding 5 μl of 10× compound working solution to the compound well and mixing well.
(4) Adding 5 μl of buffer 1 to the buffer well.
(5) Adding 5 μl of 10× enzyme working solution to the remaining wells, mixing and incubating at 37° C. for 30 minutes.
(6) Adding 5 μl of 10× ATP working solution to all experimental wells, mixing and incubating at 37° C. for 20 min.
(7) Adding 15 μl MLG chromogenic solution to all experimental wells, and uniformly mixing and incubating at room temperature for 5-30 min.
(8) The reading number of 620 nm was detected by an M5 instrument.
The inhibition rate is calculated with the following formula:
Inhibition rate (IC50)=[OD (sample well)-OD (full enzyme well containing potassium chloride)]/[(OD (full enzyme well containing potassium chloride)−(OD (full enzyme well without potassium chloride)]×100%

T1 sequence (P27112 whole entry): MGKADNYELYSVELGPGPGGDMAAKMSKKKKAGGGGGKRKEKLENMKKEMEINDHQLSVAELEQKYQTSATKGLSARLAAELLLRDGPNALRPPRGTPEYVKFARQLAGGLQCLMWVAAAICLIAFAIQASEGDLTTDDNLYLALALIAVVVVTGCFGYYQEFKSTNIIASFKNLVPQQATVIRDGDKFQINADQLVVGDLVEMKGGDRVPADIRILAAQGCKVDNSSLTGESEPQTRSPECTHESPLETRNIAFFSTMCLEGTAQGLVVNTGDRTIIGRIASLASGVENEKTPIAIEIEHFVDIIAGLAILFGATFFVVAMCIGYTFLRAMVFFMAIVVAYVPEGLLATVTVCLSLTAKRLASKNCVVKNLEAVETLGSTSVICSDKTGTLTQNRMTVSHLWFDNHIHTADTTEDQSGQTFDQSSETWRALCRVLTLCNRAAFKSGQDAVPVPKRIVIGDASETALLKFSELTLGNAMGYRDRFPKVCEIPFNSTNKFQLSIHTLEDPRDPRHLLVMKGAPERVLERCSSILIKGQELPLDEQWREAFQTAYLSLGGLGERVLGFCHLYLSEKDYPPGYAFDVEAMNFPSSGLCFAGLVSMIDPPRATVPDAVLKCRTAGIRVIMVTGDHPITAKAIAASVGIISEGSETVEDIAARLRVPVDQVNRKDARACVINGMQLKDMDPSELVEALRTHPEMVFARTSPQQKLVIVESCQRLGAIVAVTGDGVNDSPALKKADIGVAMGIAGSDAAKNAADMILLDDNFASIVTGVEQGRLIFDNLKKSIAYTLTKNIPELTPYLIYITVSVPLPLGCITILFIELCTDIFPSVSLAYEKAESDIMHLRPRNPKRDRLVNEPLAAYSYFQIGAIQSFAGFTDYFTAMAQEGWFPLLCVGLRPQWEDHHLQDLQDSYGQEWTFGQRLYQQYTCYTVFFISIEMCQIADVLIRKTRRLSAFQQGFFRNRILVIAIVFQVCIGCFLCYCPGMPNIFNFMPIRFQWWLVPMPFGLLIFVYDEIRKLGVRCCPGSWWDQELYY
T1 sequence (P18597 whole entry partner): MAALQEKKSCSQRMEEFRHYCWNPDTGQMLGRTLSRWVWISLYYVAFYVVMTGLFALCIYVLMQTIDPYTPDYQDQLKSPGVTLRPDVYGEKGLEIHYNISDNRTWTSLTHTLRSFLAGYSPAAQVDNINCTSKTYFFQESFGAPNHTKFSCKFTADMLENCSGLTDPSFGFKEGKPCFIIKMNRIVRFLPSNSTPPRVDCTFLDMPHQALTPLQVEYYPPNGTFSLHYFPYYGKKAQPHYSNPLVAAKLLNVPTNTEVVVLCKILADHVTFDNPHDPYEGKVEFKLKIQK

SMILES	IC50 [nM]
Cc1ccc(Nc2cccc(Cn3nc4c(c3-c3ccccc3F)CN(C)C4)c2)c(Cl)n1 [Example 2, 2-chloro-N-(3-((3-(2-fluorophenyl)-5-methyl-5,6-dihydropyrrolo[3,4-c]pyrazol-2(4H)-yl)methyl)phenyl)-6-methylpyridin-3-amine]	669
CN1Cc2nn(Cc3cccc(Nc4ccnc(N5CCOCC5)n4)c3)c(-c3ccccc3F)c2C1 [Example 6, N-(3-((3-(2-fluorophenyl)-5-methyl-5,6-dihydropyrrolo[3,4-c]pyrazol-2(4H)-yl)methyl)phenyl)-2-morpholinopyrimidin-4-amine]	2850
CN1Cc2nn(Cc3cccc(Nc4cncc(Cl)n4)c3)c(-c3ccccc3F)c2C1 [Example 7, 6-chloro-N-(3-((3-(2-fluorophenyl)-5-methyl-5,6-dihydropyrrolo[3,4-c]pyrazol-2(4H)-yl)methyl)phenyl)pyrazin-2-amine]	325

Further compounds by falling IC50, results first:

IC50 [nM]	SMILES
966	CN1Cc2nn(Cc3cccc(Nc4ccnc(Cl)n4)c3)c(-c3ccccc3F)c2C1 [Example 3, 2-chloro-N-(3-((3-(2-fluorophenyl)-5-methyl-5,6-dihydropyrrolo[3,4-c]pyrazol-2(4H)-yl)methyl)phenyl) pyrimidin-4-amine]
729	CN1Cc2nn(Cc3cccc(Nc4cc[nH]c(=O)n4)c3)c(-c3ccccc3F)c2C1 [Example 4, 4-((3-((3-(2-fluorophenyl)-5-methyl-5,6-dihydropyrrolo[3,4-c]pyrazol-2(4H)-yl)methyl)phenyl)amino)pyrimidin-2-(1H)-one]
415	COc1ccc(Nc2cccc(Cn3nc4c(c3-c3ccccc3F)CN(C)C4)c2)c(Cl)n1 [Example 1, 2-chloro-N-(3-((3-(2-fluorophenyl)-5-methyl-5,6-dihydropyrrolo[3,4-c]pyrazol-2(4H)-yl)methyl)phenyl)-6-methoxypyridin-3-amine]
279	CNc1nccc(Nc2cccc(Cn3nc4c(c3-c3ccccc3F)CN(C)C4)c2)n1 [Example 5, N4-(3-((3-(2-fluorophenyl)-5-methyl-5,6-dihydropyrrolo[3,4-c]pyrazol-2(4H)-yl)methyl)phenyl)-N2-methylpyrimidine-2,4-diamine]
